From patent US9938322B2, “β-hairpin peptidomimetics” (priority 2013, dated 2018)
Where a SMILES comes first, the peptide text is derived from it. [ ]: non-standard residue; d: D form. Abu(4,4,4-F3) = N[C@@H](CC(F)(F)F)C(=O)O; Cha = N[C@@H](CC1CCCCC1)C(=O)O; Chg = N[C@H](C(=O)O)C1CCCCC1; Tle = CC(C)(C)[C@H](N)C(=O)O; dDab = NCC[C@@H](N)C(=O)O; Orn = NCCC[C@H](N)C(=O)O; Dab = NCC[C@H](N)C(=O)O; Nva = CCC[C@H](N)C(=O)O; Dap = NC[C@H](N)C(=O)O

Each compound was assayed on human red blood cells (hRBC) (assay: Hemolysis of human red blood cells). Settings: red cells of human, 1 h, 100.
Type: cell-based
Outline: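 Washed fresh human erythrocytes (20% v/v, about 0.9×10^9 cells/ml final) incubated with peptide at 100 μg/ml for 1 h at 37° C with shaking. Supernatant OD540 read; hemolysis expressed relative to 2.5% Triton X-100 (100%) and PBS with 0.001% acetic acid (0%).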

SMILES	Hemolysis at 100 μg/ml
CCC[C@@H]1NC(=O)[C@@H]2CCCN2C(=O)[C@H]2CCCN2C(=O)[C@H](CO)NC(=O)[C@H](C)NC(=O)[C@H](CC2CCCCC2)NC(=O)[C@H](CCN)NC(=O)[C@H](Cc2c[nH]c3ccccc23)NC(=O)[C@H](CCN)NC(=O)[C@@H](CCN)NC(=O)[C@H](CCCN)NC(=O)[C@H](CCN)NC(=O)[C@H](C(C)(C)C)NC(=O)[C@H](CO)NC1=O [compound 141] (cyclo([Nva]S[Tle][Dab][Orn][dDab][Dab]W[Dab][Cha]AS[dP]P))	8%
CC[C@H](C)[C@@H]1NC(=O)[C@@H]2CCCN2C(=O)[C@H]2CCCN2C(=O)[C@H](CO)NC(=O)[C@H](C)NC(=O)[C@H](C(C)(C)C)NC(=O)[C@H](CCN)NC(=O)[C@H](Cc2c[nH]c3ccccc23)NC(=O)[C@H](CCN)NC(=O)[C@H](CCN)NC(=O)[C@H](CCCN)NC(=O)[C@H](CCN)NC(=O)[C@H](CC2CCCCC2)NC(=O)[C@H](CO)NC1=O [compound 142] (cyclo(IS[Cha][Dab][Orn][Dab][Dab]W[Dab][Tle]AS[dP]P))	1%
CC(C)C[C@@H]1NC(=O)[C@@H]2CCCN2C(=O)[C@H]2CCCN2C(=O)[C@H](CO)NC(=O)[C@H](CO)NC(=O)[C@H](C(C)(C)C)NC(=O)[C@H](CCN)NC(=O)[C@H](Cc2c[nH]c3ccccc23)NC(=O)[C@H](CCN)NC(=O)[C@H](CCN)NC(=O)[C@H](CCCN)NC(=O)[C@H](CCN)NC(=O)[C@H](CC2CCCCC2)NC(=O)[C@H](CO)NC1=O [compound 143] (cyclo(LS[Cha][Dab][Orn][Dab][Dab]W[Dab][Tle]SS[dP]P))	0%
CCC[C@@H]1NC(=O)[C@@H]2CCCN2C(=O)[C@H]2CCCN2C(=O)[C@H](CO)NC(=O)[C@H](CO)NC(=O)[C@H](C(C)(C)C)NC(=O)[C@H](CCN)NC(=O)[C@H](Cc2c[nH]c3ccccc23)NC(=O)[C@H](CCN)NC(=O)[C@@H](CCN)NC(=O)[C@H](CCCN)NC(=O)[C@H](CCN)NC(=O)[C@H](CC2CCCCC2)NC(=O)[C@H](CO)NC1=O [compound 144] (cyclo([Nva]S[Cha][Dab][Orn][dDab][Dab]W[Dab][Tle]SS[dP]P))	7%
CC(C)C[C@@H]1NC(=O)[C@@H]2CCCN2C(=O)[C@H]2CCCN2C(=O)[C@H](CO)NC(=O)[C@H](C)NC(=O)[C@H](C(C)(C)C)NC(=O)[C@H](CCN)NC(=O)[C@H](Cc2c[nH]c3ccccc23)NC(=O)[C@H](CCN)NC(=O)[C@@H](CCN)NC(=O)[C@H](CCCN)NC(=O)[C@H](CCN)NC(=O)[C@H](Cc2ccc(O)cc2)NC(=O)[C@H](CN)NC1=O [compound 145] (cyclo(L[Dap]Y[Dab][Orn][dDab][Dab]W[Dab][Tle]AS[dP]P))	0%
CC[C@H](C)[C@@H]1NC(=O)[C@@H]2CCCN2C(=O)[C@H]2CCCN2C(=O)[C@H](CO)NC(=O)[C@H](C)NC(=O)[C@H](C(C)(C)C)NC(=O)[C@H](CCN)NC(=O)[C@H](Cc2c[nH]c3ccccc23)NC(=O)[C@H](CCN)NC(=O)[C@@H](CCN)NC(=O)[C@H](CCCN)NC(=O)[C@H](CCN)NC(=O)[C@H](Cc2ccc(O)cc2)NC(=O)[C@H](CN)NC1=O [compound 146] (cyclo(I[Dap]Y[Dab][Orn][dDab][Dab]W[Dab][Tle]AS[dP]P))	0%
CC(C)C[C@@H]1NC(=O)[C@@H]2CCCN2C(=O)[C@H]2CCCN2C(=O)[C@H](CO)NC(=O)[C@H](C)NC(=O)[C@H](C(C)(C)C)NC(=O)[C@H](CCN)NC(=O)[C@H](Cc2c[nH]c3ccccc23)NC(=O)[C@H](CCN)NC(=O)[C@@H](CCN)NC(=O)[C@H](CCCN)NC(=O)[C@H](CCN)NC(=O)[C@H](Cc2c[nH]c3ccccc23)NC(=O)[C@H](CN)NC1=O [compound 147] (cyclo(L[Dap]W[Dab][Orn][dDab][Dab]W[Dab][Tle]AS[dP]P))	0%
CC(C)C[C@@H]1NC(=O)[C@@H]2CCCN2C(=O)[C@H]2CCCN2C(=O)[C@H](CO)NC(=O)[C@H]([C@@H](C)O)NC(=O)[C@H](C(C)(C)C)NC(=O)[C@H](CCN)NC(=O)[C@H](Cc2c[nH]c3ccccc23)NC(=O)[C@H](CCN)NC(=O)[C@@H](CCN)NC(=O)[C@H](CCCN)NC(=O)[C@H](CCN)NC(=O)[C@H](Cc2ccc(O)cc2)NC(=O)[C@H](CCN)NC1=O [compound 148] (cyclo(L[Dab]Y[Dab][Orn][dDab][Dab]W[Dab][Tle]TS[dP]P))	1%
CC(C)C[C@@H]1NC(=O)[C@@H]2CCCN2C(=O)[C@H]2CCCN2C(=O)[C@H]([C@@H](C)O)NC(=O)[C@H](CO)NC(=O)[C@H](C(C)(C)C)NC(=O)[C@H](CCN)NC(=O)[C@H](Cc2c[nH]c3ccccc23)NC(=O)[C@H](CCN)NC(=O)[C@@H](CCN)NC(=O)[C@H](CCN)NC(=O)[C@H](CCN)NC(=O)[C@H](Cc2ccc(O)cc2)NC(=O)[C@H](CN)NC1=O [compound 149] (cyclo(L[Dap]Y[Dab][Dab][dDab][Dab]W[Dab][Tle]ST[dP]P))	4%
CCC[C@@H]1NC(=O)[C@@H]2CCCN2C(=O)[C@H]2CCCN2C(=O)[C@H](CO)NC(=O)[C@H](C)NC(=O)[C@H](C2CCCCC2)NC(=O)[C@H](CCN)NC(=O)[C@H](Cc2c[nH]c3ccccc23)NC(=O)[C@H](CCN)NC(=O)[C@@H](CCN)NC(=O)[C@H](CCCN)NC(=O)[C@H](CCN)NC(=O)[C@H](CC2CCCCC2)NC(=O)[C@H](C)NC1=O [compound 150] (cyclo([Nva]A[Cha][Dab][Orn][dDab][Dab]W[Dab][Chg]AS[dP]P))	4%
CC[C@H](C)[C@@H]1NC(=O)[C@@H]2CCCN2C(=O)[C@H]2CCCN2C(=O)[C@H](CO)NC(=O)[C@H](CO)NC(=O)[C@H](C(C)(C)C)NC(=O)[C@H](CCN)NC(=O)[C@H](Cc2c[nH]c3ccccc23)NC(=O)[C@H](CCN)NC(=O)[C@@H](CCN)NC(=O)[C@H](CCCN)NC(=O)[C@H](CCN)NC(=O)[C@H](CC2CCCCC2)NC(=O)[C@H](C)NC1=O [compound 151] (cyclo(IA[Cha][Dab][Orn][dDab][Dab]W[Dab][Tle]SS[dP]P))	7%
CC(C)C[C@@H]1NC(=O)[C@@H]2CCCN2C(=O)[C@H]2CCCN2C(=O)[C@H](CO)NC(=O)[C@H](CO)NC(=O)[C@H](C(C)(C)C)NC(=O)[C@H](CCN)NC(=O)[C@H](Cc2c[nH]c3ccccc23)NC(=O)[C@H](CCN)NC(=O)[C@@H](CCN)NC(=O)[C@H](CCCN)NC(=O)[C@H](CCN)NC(=O)[C@H](CC2CCCCC2)NC(=O)[C@H](C)NC1=O [compound 152] (cyclo(LA[Cha][Dab][Orn][dDab][Dab]W[Dab][Tle]SS[dP]P))	5%
C[C@@H]1NC(=O)[C@H](C(C)(C)C)NC(=O)[C@H](CCN)NC(=O)[C@H](Cc2c[nH]c3ccccc23)NC(=O)[C@H](CCN)NC(=O)[C@@H](CCN)NC(=O)[C@H](CCCN)NC(=O)[C@H](CCN)NC(=O)[C@H](Cc2ccc(O)cc2)NC(=O)[C@H](CO)NC(=O)[C@H](Cc2ccc(O)cc2)NC(=O)[C@@H]2CCCN2C(=O)[C@H]2CCCN2C(=O)[C@H](Cc2ccc(O)cc2)NC1=O [compound 153] (cyclo(YSY[Dab][Orn][dDab][Dab]W[Dab][Tle]AY[dP]P))	2%
CC(C)C[C@@H]1NC(=O)[C@@H]2CCCN2C(=O)[C@H]2CCCN2C(=O)[C@H](CO)NC(=O)[C@@H](C)NC(=O)[C@H](C(C)(C)C)NC(=O)[C@H](CCN)NC(=O)[C@H](Cc2c[nH]c3ccccc23)NC(=O)[C@H](CCN)NC(=O)[C@@H](CCN)NC(=O)[C@H](CCCN)NC(=O)[C@H](CCN)NC(=O)[C@H](Cc2ccc(O)cc2)NC(=O)[C@H](CO)NC1=O [compound 154] (cyclo(LSY[Dab][Orn][dDab][Dab]W[Dab][Tle][dA]S[dP]P))	0%
CC(C)C[C@@H]1NC(=O)[C@@H]2CCCN2C(=O)[C@H]2CCCN2C(=O)[C@H](CO)NC(=O)[C@H](C)NC(=O)[C@H](C(C)(C)C)NC(=O)[C@H](CCN)NC(=O)[C@H](Cc2c[nH]c3ccccc23)NC(=O)[C@@H](CCN)NC(=O)[C@@H](CCN)NC(=O)[C@H](CCCN)NC(=O)[C@H](CCN)NC(=O)[C@H](Cc2ccc(O)cc2)NC(=O)[C@H](CO)NC1=O [compound 155] (cyclo(LSY[Dab][Orn][dDab][dDab]W[Dab][Tle]AS[dP]P))	0%
C[C@@H]1NC(=O)[C@H](C(C)(C)C)NC(=O)[C@H](CCN)NC(=O)[C@H](Cc2c[nH]c3ccccc23)NC(=O)[C@H](CCN)NC(=O)[C@@H](CCN)NC(=O)[C@H](CCCN)NC(=O)[C@H](CCN)NC(=O)[C@H](Cc2ccc(O)cc2)NC(=O)[C@H](CO)NC(=O)[C@H](CC(F)(F)F)NC(=O)[C@@H]2CCCN2C(=O)[C@H]2CCCN2C(=O)[C@H](CO)NC1=O [compound 156] (cyclo([Abu(4,4,4-F3)]SY[Dab][Orn][dDab][Dab]W[Dab][Tle]AS[dP]P))	1%
CC(C)C[C@@H]1NC(=O)[C@@H]2CCCN2C(=O)[C@H]2CCCN2C(=O)[C@H](CO)NC(=O)[C@H](CCN)NC(=O)[C@H](C(C)(C)C)NC(=O)[C@H](CCN)NC(=O)[C@H](Cc2c[nH]c3ccccc23)NC(=O)[C@H](CCN)NC(=O)[C@@H](CCN)NC(=O)[C@H](CCCN)NC(=O)[C@H](CCN)NC(=O)[C@H](Cc2ccc(O)cc2)NC(=O)CNC1=O [compound 157] (cyclo(LGY[Dab][Orn][dDab][Dab]W[Dab][Tle][Dab]S[dP]P))	1%
C[C@@H]1NC(=O)[C@H](C(C)(C)C)NC(=O)[C@H](CCN)NC(=O)[C@H](Cc2c[nH]c3ccccc23)NC(=O)[C@H](CCN)NC(=O)[C@@H](CCN)NC(=O)[C@H](CCCN)NC(=O)[C@H](CCN)NC(=O)[C@H](Cc2ccc(O)cc2)NC(=O)[C@H](CO)NC(=O)[C@H]([C@@H](C)O)NC(=O)[C@@H]2CCCN2C(=O)[C@H]2CCCN2C(=O)[C@H](Cc2ccc(O)cc2)NC1=O [compound 158] (cyclo(TSY[Dab][Orn][dDab][Dab]W[Dab][Tle]AY[dP]P))	1%
CC(C)C[C@@H]1NC(=O)[C@@H]2CCCN2C(=O)[C@H]2CCCN2C(=O)[C@H](CO)NC(=O)[C@H](CC(=O)O)NC(=O)[C@H](C(C)(C)C)NC(=O)[C@H](CCN)NC(=O)[C@H](Cc2c[nH]c3ccccc23)NC(=O)[C@H](CCN)NC(=O)[C@@H](CCN)NC(=O)[C@H](CCCN)NC(=O)[C@H](CCN)NC(=O)[C@H](Cc2ccc(O)cc2)NC(=O)[C@H](CCN)NC1=O [compound 159] (cyclo(L[Dab]Y[Dab][Orn][dDab][Dab]W[Dab][Tle]DS[dP]P))	1%
